Results on ten compounds are retold here after PubChem BioAssay AID326 (DTP/NCI, 2004).

“And” between values parts separate entries of the source, which are not always exact repeats. Equal values may be shown once. Toxic doses and inconclusive results are not listed.

In the assay the test system is CD2F1 mice, P388/DHAQ leukemia ip, median survival T/C. Nature of the assay: NCI In Vivo Anticancer Drug Screen. Data for tumor model P388 Leukemia resistant to Dihydroxy Anthracenedione; NSC 299195 (intraperitoneal) in CD2F1 (CDF1) mice. As to conditions: endpoint: median survival time, higher = longer survival. As to the method: The antitumor activity of compounds was measured in mice bearing transplantable tumors. Survival or tumor size were measured and the results are expressed as the measurement made in the treated group (T) divided by the measurement made in the vehicle treated control group (C). The tumor model used in this assay is P388 Leukemia resistant to Dihydroxy Anthracenedione; NSC 299195 (intraperitoneal) in CD2F1 (CDF1) mice

The mark [1] stands for this setting: dose: 32.4 mg/kg/injection, schedule: Q04DX002 (ip), vehicle: saline.
The mark [2] stands for this setting: dose: 54.0 mg/kg/injection, schedule: Q04DX002 (ip), vehicle: saline.

Regarding `O=NN(CCCl)C(=O)NCCCl`, the T/C is 193 % of control (dose: 5.4 mg/kg/injection, schedule: Q04DX003 (ip), vehicle: saline + alcohol); 150 % of control (dose: 6.48 mg/kg/injection, schedule: Q04DX002 (ip), vehicle: saline + alcohol); 319 % of control (dose: 9.0 mg/kg/injection, schedule: Q04DX003 (ip), vehicle: saline + alcohol); 168 % of control and 205 % of control (dose: 10.8 mg/kg/injection, schedule: Q04DX002 (ip), vehicle: saline + alcohol); 463 % of control (dose: 15.0 mg/kg/injection, schedule: Q04DX003 (ip), vehicle: saline + alcohol); 317 % of control and 412 % of control (dose: 18.0 mg/kg/injection, schedule: Q04DX002 (ip), vehicle: saline + alcohol). The T/C runs as follows: (dose: 25.0 mg/kg/injection, schedule: Q04DX003 (ip), vehicle: saline + alcohol) 463 % of control; (dose: 30.0 mg/kg/injection, schedule: Q04DX002 (ip), vehicle: saline + alcohol) 412 % of control and 420 % of control.

Regarding `O=P1(N(CCCl)CCCl)NCCCO1` (configuration not stated), the T/C by setting is: under setting [1], 189 % of control; (dose: 38.9 mg/kg/injection, schedule: Q04DX003 (ip), vehicle: saline) 224 % of control; (dose: 43.2 mg/kg/injection, schedule: Q04DX002 (ip), vehicle: saline) 203 % of control; under setting [2], 255 % of control; (dose: 64.8 mg/kg/injection, schedule: Q04DX003 (ip), vehicle: saline) 353 % of control; (dose: 72.0 mg/kg/injection, schedule: Q04DX002 (ip), vehicle: saline) 201 % of control. Moreover, the T/C is 336 % of control (dose: 90.0 mg/kg/injection, schedule: Q04DX002 (ip), vehicle: saline); 463 % of control (dose: 108.0 mg/kg/injection, schedule: Q04DX003 (ip), vehicle: saline); 223 % of control (dose: 120.0 mg/kg/injection, schedule: Q04DX002 (ip), vehicle: saline); 200 % of control (dose: 150.0 mg/kg/injection, schedule: Q04DX002 (ip), vehicle: saline); 380 % of control (dose: 200.0 mg/kg/injection, schedule: Q04DX002 (ip), vehicle: saline).

For the compound `CC[C@](O)(C(=O)O)c1cc2n(c(=O)c1CO)Cc1cc3ccccc3nc1-2`, the T/C is, setting by setting: (dose: 6.48 mg/kg/injection, schedule: Q04DX003 (ip), vehicle: saline) 102 % of control and 117 % of control and 121 % of control; (dose: 7.78 mg/kg/injection, schedule: Q04DX003 (ip), vehicle: saline) 121 % of control; (dose: 10.8 mg/kg/injection, schedule: Q04DX003 (ip), vehicle: saline) 115 % of control and 120 % of control; (dose: 18.0 mg/kg/injection, schedule: Q04DX003 (ip), vehicle: saline) 115 % of control; (dose: 30.0 mg/kg/injection, schedule: Q04DX003 (ip), vehicle: saline) 155 % of control; (dose: 36.0 mg/kg/injection, schedule: Q04DX003 (ip), vehicle: saline) 164 % of control. For the same compound, the T/C (dose: 50.0 mg/kg/injection, schedule: Q04DX003 (ip), vehicle: saline) was 180 % of control.

Consider `O=CC(NC(=O)N(CCCl)N=O)C(O)C(O)C(O)CO` (configuration not stated), for which the T/C was 201 % of control (dose: 7.2 mg/kg/injection, schedule: Q04DX002 (ip), vehicle: saline); 181 % of control (dose: 12.0 mg/kg/injection, schedule: Q04DX002 (ip), vehicle: saline); 412 % of control (dose: 20.0 mg/kg/injection, schedule: Q04DX002 (ip), vehicle: saline).

On to `N[C@@H](Cc1ccc(N(CCCl)CCCl)cc1)C(=O)O`, for which the T/C runs as follows: (dose: 1.94 mg/kg/injection, schedule: Q04DX002 (ip), vehicle: saline) 114 % of control and 119 % of control and 120 % of control; (dose: 1.94 mg/kg/injection, schedule: Q04DX003 (ip), vehicle: saline) 106 % of control; (dose: 3.24 mg/kg/injection, schedule: Q04DX002 (ip), vehicle: saline) 117 % of control and 118 % of control; (dose: 3.24 mg/kg/injection, schedule: Q04DX003 (ip), vehicle: saline) 117 % of control; (dose: 9.0 mg/kg/injection, schedule: Q04DX002 (ip), vehicle: saline) 157 % of control and 160 % of control and 163 % of control; (dose: 9.0 mg/kg/injection, schedule: Q04DX003 (ip), vehicle: saline) 157 % of control. Further, the T/C by setting is: (dose: 15.0 mg/kg/injection, schedule: Q04DX002 (ip), vehicle: saline) 102 % of control and 118 % of control; (dose: 15.0 mg/kg/injection, schedule: Q04DX003 (ip), vehicle: saline) 152 % of control and 156 % of control.

For the compound `O=NN(CCCl)C(=O)NC1CCCCC1`, the T/C is 192 % of control (dose: 7.2 mg/kg/injection, schedule: Q04DX003 (ip), vehicle: saline + alcohol); 337 % of control (dose: 12.0 mg/kg/injection, schedule: Q04DX003 (ip), vehicle: saline + alcohol); 542 % of control (dose: 20.0 mg/kg/injection, schedule: Q04DX003 (ip), vehicle: saline + alcohol); 202 % of control (dose: 33.3 mg/kg/injection, schedule: Q04DX003 (ip), vehicle: saline + alcohol).

Regarding `CC(=O)N(C)c1ccc(Nc2cc(C)[nH]c3ccc4ncnc4c23)cc1`, the T/C was 98 % of control (dose: 19.4 mg/kg/injection, schedule: Q04DX002 (ip), vehicle: saline); 98 % of control (dose: 20.7 mg/kg/injection, schedule: Q04DX002 (ip), vehicle: saline); 94 % of control under setting [1]; 91 % of control (dose: 34.6 mg/kg/injection, schedule: Q04DX002 (ip), vehicle: saline); 116 % of control under setting [2]; 94 % of control (dose: 57.6 mg/kg/injection, schedule: Q04DX002 (ip), vehicle: saline). The T/C is 108 % of control (dose: 96.0 mg/kg/injection, schedule: Q04DX002 (ip), vehicle: saline) and 98 % of control (dose: 160.0 mg/kg/injection, schedule: Q04DX002 (ip), vehicle: saline).

In the case of `O=C(Nc1ccc(C2=NCCN2)cc1)c1ccc(C(=O)Nc2ccc(C3=NCCN3)cc2)c(Cl)c1`, the T/C runs as follows: (dose: 16.2 mg/kg/injection, schedule: Q04DX003 (ip), vehicle: saline with Tween-80) 94 % of control; (dose: 27.0 mg/kg/injection, schedule: Q04DX003 (ip), vehicle: saline with Tween-80) 98 % of control; (dose: 45.0 mg/kg/injection, schedule: Q04DX003 (ip), vehicle: saline with Tween-80) 97 % of control.

Take `COC(=O)C[C@](O)(CCCC(C)(C)O)C(=O)O[C@@H]1C(OC)=C[C@]23CCCN2CCc2cc4c(cc2[C@H]13)OCO4`: the T/C reads like this: (dose: 3.0 mg/kg/injection, schedule: Q04DX003 (ip), vehicle: saline) 116 % of control; (dose: 3.33 mg/kg/injection, schedule: Q04DX003 (ip), vehicle: saline) 154 % of control.

With `CO[C@@]12[C@H](COC(N)=O)C3=C(C(=O)C(C)=C(N)C3=O)N1C[C@@H]1N[C@@H]12`, the T/C by setting is: (dose: 1.08 mg/kg/injection, schedule: Q04DX002 (ip), vehicle: saline) 95 % of control; (dose: 1.62 mg/kg/injection, schedule: Q04DX003 (ip), vehicle: saline) 166 % of control; (dose: 1.8 mg/kg/injection, schedule: Q04DX002 (ip), vehicle: saline) 108 % of control; (dose: 2.7 mg/kg/injection, schedule: Q04DX003 (ip), vehicle: saline) 172 % of control; (dose: 3.0 mg/kg/injection, schedule: Q04DX002 (ip), vehicle: saline) 103 % of control; (dose: 4.5 mg/kg/injection, schedule: Q04DX003 (ip), vehicle: saline) 168 % of control. In addition, the T/C is, setting by setting: (dose: 5.0 mg/kg/injection, schedule: Q04DX002 (ip), vehicle: saline) 117 % of control; (dose: 7.5 mg/kg/injection, schedule: Q04DX003 (ip), vehicle: saline) 108 % of control.
